Measured values reported in article PMC8095338 (Neuro-oncology Advances, 2021).
“And” between values parts separate entries of the source, which are not always exact repeats. Equal entries are not always repeated. Where two headings read alike, the source gives them in different places.

How the values were obtained:
[1] = cited from earlier work
p-ERK = assay: Immunohistochemistry for p-ERK in minipig tissues; type: in vivo
Method: Formalin-fixed paraffin-embedded minipig tissue including cerebral cortex, cross sections of optic nerve and sciatic nerve, and skin were sectioned. Immunohistochemical staining for phosphor-p44/p42 MAPK (ERK1/2) (Thr202/Tyr204) (Cell Signaling Technology Catalog #4370, Rabbit mAb, 1:100 dilution) was performed using 5 μm sections on a Thermo Fisher Scientific Autostainer 360 (Thermo Fisher Scientific). […] In the skin, epidermis was scored as no (0) or low (1) (<20 epidermal cells per 400× magnification) or high (2) (>20 epidermal cells per 400× magnification) immunoreactivity.

[2] = cited from earlier work; for maximum tolerated dose: twice daily
[3] = Plasma PK study in WT and NF1 minipigs (LC-MS/MS, noncompartmental); type: in vivo, minipig; conditions: for AUC: read-out: AUC0?∞
Method: Plasma isolation was performed as described in a previous study.[13] […] Tissues were harvested and immediately transferred to cryovials and stored at −80°C until analysis.
Standard curves and controls were generated using corresponding untreated tissue. Skin tissue was treated with collagenase, and all organ tissues were homogenized. Liquid extraction with ethyl acetate was then performed, followed by analysis. […] The chromatographic separation was performed as described.[13] Mass spectrometric detection was performed using multiple reaction monitoring in positive ionization mode. […] Ion source gases 1 and 2 were set at 50 and 50 psi, respectively; the curtain gas was at 20 psi and the collision gas at 4 psi. […] Data acquisition was performed with analyst 1.4.1 software (MDS-SCIEX).
The PK parameters included AUC–time curve from time 0 to ∞ (linear up, log down), Cmax, Tmax, and T1/2.

[4] = pediatric patients, 25 mg/m^2, plasma, median (range), ref 6
[5] = pediatric patients, 25 mg/m^2, plasma, median (range), ref 7
[6] = female, minipig, po, 7.3 mg/kg, individual NF1 F minipigs, single oral 7.3 mg/kg
[7] = female, minipig, po, 7.3 mg/kg, individual WT F minipigs, single oral 7.3 mg/kg
[8] = individual NF1 F minipigs, single oral 7.3 mg/kg, 7.3 mg/kg
[9] = individual NF1 M minipigs, single oral 7.3 mg/kg, 7.3 mg/kg
[10] = individual WT F minipigs, single oral 7.3 mg/kg, 7.3 mg/kg
[11] = individual WT M minipigs, single oral 7.3 mg/kg, 7.3 mg/kg
[12] = minipig, po, 7.3 mg/kg, all 16 minipigs (WT and NF1), median (range), single oral 7.3 mg/kg
[13] = minipig, po, 7.4 mg/kg, NF1 minipigs, 7.4 mg/kg single oral dose, median (range)

## Cn1cnc2c(F)c(Nc3ccc(Br)cc3Cl)c(C(=O)NOCCO)cc21 [selumetinib]
[1]; human, in vivo, 75 mg
  AUC0→∞: 4510 (19.2) hour × ng/mL
[1]; human, in vivo
  AUC0-∞ (systemic exposure): 4510 to 6335 ng·h/mL
[1]; pediatric NF1 patients
  AUC0-∞ (systemic exposure): 2520 to 3855 ng·h/mL
[1]; pediatric dose 25 mg/m^2
  median maximum concentration (Cmax) in plasma: 886 ng/mL
[1]; [4]
  AUC0→∞: 2520 (2341–3280) hour × ng/mL
  Cmax: 886 (790–1200) ng/mL
  T1/2: 6.5 (4.7–15.8) hours
[1]; [5]
  AUC0→∞: 3855 (1780–7250) hour × ng/mL
  Cmax: 1400 (306–3570) ng/mL
  Tmax: 1.4 (1.0–4.0) hours
p-ERK; NF1 minipig tissues, treated vs untreated
  p-ERK by IHC in glial cells: reduction in ERK phosphorylation
p-ERK; cerebral white matter tracts, NF1 minipigs
  treated NF1 animals without reduction in ERK phosphorylation by IHC: 4 of 8
[2]; adult patients with advanced solid malignancy
  maximum tolerated dose: 75 mg
[2]; pediatric patients with plexiform neurofibroma or low-grade glioma
  maximum tolerated dose: 25 mg/m^2
[2]; pediatric patients, 25 mg/m^2 twice daily
  confirmed partial response: 70 % of pediatric patients
[3]; all 16 minipigs (WT and NF1), median (range), single oral 7.3 mg/kg
  Clast: 22.7 ng/mL
[3]; female, minipig, individual WT F minipigs, single oral 7.3 mg/kg
  k el: 2.78e-05 s⁻¹
[3]; [6]
  half-life: 7.5 h
  AUC: 3560 ng·h/mL
[3]; female, minipig, po, 7.3 mg/kg, individual NF1 F minipigs, single oral 7.3 mg/kg, read-out: Cmax
  Cmax: 812 ng/mL
[3]; [7]
  half-life: 7.1 h
  AUC: 3680 ng·h/mL
[3]; female, minipig, po, 7.3 mg/kg, individual WT F minipigs, single oral 7.3 mg/kg, read-out: Cmax
  Cmax: 636 ng/mL
[3]; individual NF1 F minipigs, single oral 7.3 mg/kg
  Kel: 0.1 h⁻¹
[3]; [8]
  AUC0?∞: 5896 ng·h/mL and 5255 ng·h/mL and 4287 ng·h/mL
  Cmax: 678 ng/mL and 633 ng/mL and 571 ng/mL
  T1/2: 7.6 h and 8.0 h and 8.2 h
  Tmax: 2.0 h and 0.5 h
[3]; [9]
  AUC0?∞: 4116 ng·h/mL and 6092 ng·h/mL and 4344 ng·h/mL
  Cmax: 1480 ng/mL and 294 ng/mL and 766 ng/mL and 547 ng/mL
  T1/2: 7.3 h and 14.7 h and 10.6 h and 6.1 h
  Tmax: 2.0 h
[3]; [10]
  AUC0?∞: 5722 ng·h/mL and 5468 ng·h/mL and 5843 ng·h/mL
  Cmax: 573 ng/mL and 1040 ng/mL and 1020 ng/mL
  T1/2: 10.1 h and 6.7 h and 7.8 h
  Tmax: 2.0 h and 0.5 h
[3]; individual WT M minipigs, single oral 7.3 mg/kg
  Kel: 0.1 h⁻¹
[3]; [11]
  AUC0?∞: 3558 ng·h/mL and 9926 ng·h/mL and 5995 ng·h/mL and 5040 ng·h/mL
  Cmax: 266 ng/mL and 621 ng/mL and 861 ng/mL and 1270 ng/mL
  T1/2: 6.7 h and 10.6 h and 11.8 h
  Tmax: 5 h and 0.5 h and 2.1 h
[3]; male, minipig, individual NF1 M minipigs, single oral 7.3 mg/kg
  k el: 2.78e-05 s⁻¹
[3]; male, minipig, po, 7.3 mg/kg, individual NF1 M minipigs, single oral 7.3 mg/kg
  AUC: 7930 ng·h/mL
[3]; male, minipig, po, 7.3 mg/kg, individual NF1 M minipigs, single oral 7.3 mg/kg, read-out: Tmax
  Tmax: 1.1 h
[3]; male, minipig, po, 7.3 mg/kg, individual WT M minipigs, single oral 7.3 mg/kg
  half-life: 12.3 h
[3]; minipig, all 16 minipigs (WT and NF1), median (range), single oral 7.3 mg/kg
  k el: 2.78e-05 s⁻¹
[3]; [12]
  AUC(0-inf): 5360 ng·h/mL
  half-life: 7.9 h
[3]; minipig, po, 7.3 mg/kg, all 16 minipigs (WT and NF1), median (range), single oral 7.3 mg/kg, read-out: Cmax
  Cmax: 657 ng/mL
[3]; minipig, po, 7.3 mg/kg, all 16 minipigs (WT and NF1), median (range), single oral 7.3 mg/kg, read-out: Tmax
  Tmax: ~1 h
[3]; [13]
  AUC(0-inf): 4800 ng·h/mL
  half-life: 7.8 h
[3]; minipig, po, 7.4 mg/kg, NF1 minipigs, 7.4 mg/kg single oral dose, median (range), read-out: Cmax
  Cmax: 656 ng/mL
[3]; minipig, po, 7.4 mg/kg, NF1 minipigs, 7.4 mg/kg single oral dose, median (range), read-out: Tmax
  Tmax: 1.1 h
[3]; minipig, po, 7.4 mg/kg, WT minipigs, 7.4 mg/kg single oral dose, median (range)
  AUC(0-inf): 5600 ng·h/mL
